Patent US9791449B2, “Ovarian cancer stem cells and methods of isolation and uses thereof” (THE GENERAL HOSPITAL CORPORATION, priority 2011, dated 2017)
“Also recorded” adds a separate entry of the source.

Key:
[1] = test system: OVCAR-5 cells; experiment: Cell proliferation assay in monolayer (trypan blue count plus flow cytometry); format: cell-based, human; settings: for proliferation of 3+/Ecad+ population / proliferation of 3+/Ecad− population: OVCAR-5, doxorubicin 60 nM, 1, 2 and 3 days
Procedure: OVCAR-5 cells were seeded in T-75 flasks at different densities (1.6×10^6, 1.2×10^6, 0.8×10^6 cells) with DMEM in 10% FCS, incubated for 24 h, and then treated with either PBS (control) or 60 nM doxorubicin for 24, 48, and 72 h. Cells seeded at 0.8×10^6 were also treated with cisplatin (0.2, 0.5, 1 μM) for 72 h. Harvested total viable cells were counted by trypan blue staining in a hemocytometer and stained with antihuman CD24-PE, anti-mouse/human CD44-APC/Cy7, anti-human Epcam-APC, and anti-human Ecadherin-FITC. Flow cytometry was performed to analyze for the absolute number of 3+/Ecad− and 3+/Ecad+ cells, which were calculated from the total viable cell numbers by analyzing the percentage of each population adjusted for seeding density (1×, 1.5×, and 2×, respectively).

[2] = test system: ovarian cancer cells marked by CD44, CD24, and Epcam (3+); settings: after treatment with chemotherapeutics; cited from earlier work
[3] = test system: 3+/Ecad− OVCAR-5 cells; experiment: Colony formation assay of FACS-separated cells; format: cell-based, human; settings: OVCAR-5 3+/Ecad− cells, 2000 cells in six-well plates, MIS 30 ug/ml or Doxorubicin 30 nM vs media, 14 days
Procedure: Colony formation was performed as previously described (4; wei 2010). 3+/Ecad− or 3−/Ecad+ cells separated from the ovarian cancer cell lines were treated with MIS or doxorubicin, cisplatin, or taxol, then plated on 6-well plates containing 2 ml/well complete DMEM medium at 500, 1000, or 2000 cells/well, and incubated for 14 days at 37° C., with a media change at day 7. Cells separated from primary ascites were plated on 12-well plates coated by metrigel or by agarose for colony formation assays at 25,000, 50,000, or 100,000 cells/well. Cells were seeded on 1:2 metrigel or in 0.4% agarose over a 0.8% layer, and incubated for 3-4 weeks at 37° C. At day 14 (cell lines) or day 21 (ascites), plates were washed with 1×PBS, and cells fixed with methanol. Resulting colonies were stained with Giemsa and the stained area captured and analyzed using Image J (Rasband, NIH, USA, http://rsb.info.nih.gov/ij/). Large colonies greater than 4 mm at 10× magnification were also counted and compared.

[4] = test system: OVCAR-5 cells; experiment: Cell cycle analysis by flow cytometry; format: cell-based, human
Procedure: OVCAR-5 was grown to 50-60% confluency in DMEM with 10% FCS, untreated or treated with 100 μg/mL (714 nM) MIS or 60 nM doxorubicin for 48 h, harvested, and incubated with 10 μg/mL Hoechst 33342 at 37° C. for 30 min or 40 μg/mL propidium iodide (Sigma) at 25° C. for 30 min. Cells were stained with anti-human CD24-PE, anti-mouse/human CD44-APC/Cy7, anti-human Epcam-APC, and anti-human Ecadherin-FITC for 20 min at 4° C. and fixed in paraformaldehyde (1%), and the cell cycle was analyzed using the SORP LSRII.

[5] = test system: MOVCAR-7 and MOVCAR-8 cell lines; experiment: qPCR of CDK inhibitor mRNAs relative to GAPDH; format: cell-based, mouse
Procedure: Total microRNA (miRNAs) were extracted from the different cell lines HOSE-4, HOSE-6, OVCAR-5, OVCAR-3, OVCAR-8, IGROV-1, and SKOV-3 using the miRNeasy Mini kit (QIAGEN) and reverse-transcribed to cDNAs using the TaqMan MicroRNA Reverse Transcription Kit (Applied Biosystems). Levels of Let-7c miRNAs were measured by quantitative PCR using TagMan Let-7 probes (Applied Biosystems; part no. 4373167) with U47 RNA as internal standard for normalization. Total mRNAs were also extracted from separated and unseparated OVCAR-5, MOVCAR-7, and MOVCAR-8 cell lines using an RNeasy Mini kit (QIAGEN) and reverse-transcribed to cDNAs using the SuperScript III Reverse Transcription Kit (Invitrogen). Levels of Lin28 and cyclin-dependent kinase (CDK) inhibitor mRNAs were measured by quantitative PCR with GAPDH as an internal standard using the following primers: […]
LIN28 F ([…])(SEQ ID NO: 34) and R ([…])(SEQ ID NO: 35); p15 F ([…])(SEQ ID NO: 36) and R ([…])(SEQ ID NO: 37); p16 F ([…])(SEQ ID NO: 38) and R ([…])(SEQ ID NO: 39); p18 F ([…])(SEQ ID NO: 40) and R ([…])(SEQ ID NO: 41); p19F ([…])(SEQ ID NO: 42) and R ([…])(SEQ ID NO: 43); p21 F ([…])(SEQ ID NO: 44) and R ([…])(SEQ ID NO: 45); p27 F ([…])(SEQ ID NO: 46) and R ([…])(SEQ ID NO: 47); CDK2 F ([…])(SEQ ID NO: 48) and R ([…])(SEQ ID NO: 49); CDK4 F ([…])(SEQ ID NO: 50) and R([…])(SEQ ID NO: 51); CDK6 F ([…])(SEQ ID NO: 52) and R ([…])(SEQ ID NO: 53); and GAPDH F ([…])(SEQ ID NO: 54) and R ([…])(SEQ ID NO: 55). Relative fold changes of Let-7c miRNAs and Lin28 and CDK inhibitor mRNAs were calculated as ΔCt or ΔΔCt (1) (n=3 for each primer).

[6] = OVCAR-5, cisplatin 0.2, 0.5 and 1 μM, 3 d, absolute cell number
[7] = absolute cell number, listed as Doxorubicin

Compound	proliferation of total viable cells ([1]; OVCAR-5, cisplatin 0.2, 0.5 and 1 μM, 3 d)	proliferation of 3+Ecad− population [1, 6]	proliferation of 3−Ecad+ population [1, 6]	proliferation of 3+Ecad− population ([1]; OVCAR-5, cisplatin 0.2, 0.5 and 1 μM, 3 d, absolute cell number, listed as Cisplatin)	relative numbers of 3+ enriched population compared to 3− cells [2]	colony formation of 3+/Ecad− cells [3]	colony formation of 3+/Ecad− cells ([3]; listed as Doxorubicin)	proliferation of 3+/Ecad+ population ([1]; absolute cell number)	proliferation of 3+/Ecad− population ([1]; absolute cell number)	proliferation of 3+/Ecad+ population [1, 7]	proliferation of 3+/Ecad− population [1, 7]	proliferation of total viable cells ([1]; unseparated OVCAR-5, doxorubicin 60 nM, 1, 2 and 3 days)	proliferation of total viable cells ([1]; unseparated OVCAR-5, doxorubicin 60 nM, 1, 2 and 3 days, listed as Doxorubicin)	percentage of 3+/Ecad− cells in G1 ([4]; 100 μg/mL (714 nM) MIS or 60 nM doxorubicin, 48 h)	S or G2 distributions of either 3+Ecad− or 3−Ecad+ ([4]; doxorubicin 60 nM, 2 d)	p15 expression ([5]; MOVCAR-7 and -8, 50 μg/mL MIS or 60 nM doxorubicin vs vehicle, 4 h)	other CDK inhibitors mRNA levels (p18, p19, p21, p27) ([5]; MOVCAR-7 or -8, 50 μg/mL MIS or 60 nM doxorubicin, 4 h)	kinases tested (CDK2, CDK4, CDK6) ([5]; transgenic cell lines treated with MIS or doxorubicin, data not shown)
N.N.[Cl][Pt][Cl] [cisplatin]	inhibits proliferation	increased	inhibits proliferation	stimulates	increased	–	–	–	–	–	–	–	–	–	–	–	–	–
CC(=O)O[C@H]1C(=O)[C@@]2(C)[C@H]([C@H](OC(=O)c3ccccc3)[C@]3(O)C[C@H](OC(=O)[C@H](O)[C@@H](NC(=O)c4ccccc4)c4ccccc4)C(C)=C1C3(C)C)[C@]1(OC(C)=O)CO[C@@H]1C[C@@H]2O [paclitaxel]	–	–	–	–	increased	–	–	–	–	–	–	–	–	–	–	–	–	–
COc1cccc2c1C(=O)c1c(O)c3c(c(O)c1C2=O)C[C@@](O)(C(=O)CO)C[C@@H]3O[C@H]1C[C@H](N)[C@H](O)[C@H](C)O1 [doxorubicin, reference compound]	–	–	–	–	increased	significantly increased number of colonies; also recorded: significantly increases; also recorded: stimulated; also recorded: paradoxically increased; also recorded: significantly increased colony numbers	paradoxically increased significantly	decreased	paradoxically increased	inhibits proliferation	stimulates	significant inhibition	inhibits proliferation	decreased	did not statistically affect	decreased; also recorded: significant and opposite responses	did not regulate significantly	unaffected
